One data set concerns growth hormone (GH). The experiment in a line: Example 1: serum GH concentration. In kind it is in vivo, Beagle dogs. As to conditions: once-daily 6 mg/kg or twice-daily 3 mg/kg, approximately 0.5 h after dosing, days 1, 2, 4, 7. On the procedure: (§1) A controlled, seven-day study was performed to assess the impact of different capromorelin-dosing regimens on the production of insulin-like growth factor 1 (hereinafter “IGF-1”), growth hormone (hereinafter “GH”), and cortisol. The different capromorelin-dosing regimens were also assessed for the impact on food intake and changes in body mass.
(§2) Eighteen adult non-naïve Beagle dogs (nine males and nine females) were divided into one of three treatment groups. Each of the three treatment groups included three males and three females. Group A, which was the control group, was dosed twice per day, via oral gavage, with a vehicle (deionized water alone) and was used as a baseline data point for comparison against the active treatment regimens. Group B comprised an active treatment group that received two treatments per day, via oral gavage, with a capromorelin-containing composition with a concentration of 3 mg/kg capromorelin per treatment. Finally, Group C comprised an active treatment group that received one treatment per day, via oral gavage, with a capromorelin-containing composition with a concentration of 6 mg/kg capromorelin per treatment.
(§3) During the ten day study period, on an at least once-daily basis, each of the dogs was monitored for clinical observations, mortality, morbidity, body mass, and food consumption. […]

Data set [1] is described as follows: Example 4 seven-day study once vs twice daily 3 mg/kg: food consumption and body weight. In kind it is in vivo, Beagle dogs. On the procedure:
(§4) A controlled, seven-day study was performed to assess the impact of different capromorelin-dosing regimens on the production of IGF-1, GH, and cortisol. The different capromorelin-dosing regimens were also assessed for the impact on food intake and changes in body mass.
(§5) […] were divided into one of three treatment groups, with one negative control group and two active treatment groups. Each of the three treatment groups included three males and three females. The first group received a placebo formulation (i.e., deionized water) twice per day, via oral gavage. The second group received a once-daily dose of the capromorelin composition at a concentration of 3 mg/kg, via oral gavage. The third group received a twice-daily dose of the capromorelin composition at a concentration of 3 mg/kg, via oral gavage.
(§6) During the ten day study period, on an at least once-daily basis, each of the dogs was monitored for clinical observations, mortality, moribundity, body mass, acceptability/palatability, and food consumption. Serum samples were taken to measure capromorelin concentration, GH concentration, IGF-1 concentration, and cortisol concentration. Serum samples were taken on days 1, 2, 4, and 7 at −15 minutes (pre-dose), immediately prior to dosing (0 minutes) and 30, 45, 60, 90, 120, 240, 360, and/or 480 minutes post dosing. […]

Data set [2] is described as follows: Example 4: capromorelin concentration in serum. As to conditions: Days 1 and 7, 3 mg/kg once or twice daily. In kind it is in vivo. On the procedure:
as §4, §5, §6

A further data set deals with growth hormone. The experiment in a line: Example 5: serum growth hormone. In kind it is in vivo, Beagle dogs. Particulars: Groups 2-4; mitigated by Day 4, further reduced by Day 7. On the procedure: In order to further refine the dosing regimen that would provide an appropriate blood profile of capromorelin and desired results from the perspective of increased food intake and weight gain, an additional series of experiments were conducted. In these experiments, twenty-four adult (male and female) Beagle dogs weighing approximately 9 to 13 kilograms were randomly divided into four groups. Group 1 received a placebo formulation, without any active compound, two times per day; Group 2 received a composition comprising 3 mg/kg of body weight of capromorelin one time per day; Group 3 received a composition comprising 4.5 mg/kg of body weight of capromorelin one time per day; and Group 4 received a composition comprising 3 mg/kg of body weight of capromorelin two times per day. […]
In these experiments, the animals were orally administered the flavored formulation at approximately 8:00 AM and, for Group 4 only, again at 6:00 PM. […] Food consumption was calculated and recorded on Days −7 through Day 7. Baseline food consumption was calculated for each individual dog as the average number of grams of food consumed on Days −3, −2, and −1. The study period food consumption was calculated for each individual dog as the average of Days 1 through 7. […]

A further data set has as its system cortisol. The experiment in a line: Example 1: serum cortisol concentration. In kind it is in vivo, Beagle dogs. Particulars: approximately 0.5 h post treatment, days 1, 2 and 7. On the procedure: as §1, §2, §3
The subject of another data set is GH. The experiment in a line: Example 4: serum GH concentration. In kind it is in vivo, Beagle dogs. As to conditions: once-daily or twice-daily 3 mg/kg, approximately 0.5 h, days 1, 4, 7. On the procedure:
as §4, §5, §6

The next data set deals with IGF-1. The experiment in a line: Example 4: serum IGF-1 concentration. In kind it is in vivo, Beagle dogs. The protocol:
as §4, §5
During the ten day study period, on an at least once-daily basis, each of the dogs was monitored for clinical observations, mortality, moribundity, body mass, acceptability/palatability, and food consumption. Serum samples were taken to measure capromorelin concentration, GH concentration, IGF-1 concentration, and cortisol concentration. Serum samples were taken on days 1, 2, 4, and 7 at −15 minutes (pre-dose), immediately prior to dosing (0 minutes) and 30, 45, 60, 90, 120, 240, 360, and/or 480 minutes post dosing. Additional serum samples were taken at 8 AM on Day 10 of the study to assess long-term impact of the active treatments.

As for `CN1N=C2CCN(C(=O)[C@@H](COCc3ccccc3)NC(=O)C(C)(C)N)C[C@@]2(Cc2ccccc2)C1=O.O=C(O)C(O)C(O)C(=O)O` [capromorelin], the “GH levels in the serum after dosing” value in the data set on growth hormone (GH) and in the data set with GH was “marked increase” each time. The “weight loss over the course of the experiment” value in data set [1] (once-daily 3 mg/kg oral gavage) is given as “did not experience weight loss or did not experience as great a weight loss as the negative control”. Further, the “average more food consumed daily relative to the negative control” value in data set [1] (once-daily and twice-daily 3 mg/kg oral gavage, 7 days) is “approximately 34%”. Further, the “serum capromorelin by eight hours after administration” value in data set [2] is “decreased to near undetectable levels”. The “time after dosing at which serum capromorelin begins rising” value in data set [2] is on record as “approximately 0.5 h”. For the same compound, in the data set with growth hormone, the “growth hormone in the serum” value is recorded as “increase in growth hormone in the serum on Day 1”. In addition, the “cortisol concentrations in the serum relative to deionized water” value in the data set on cortisol was “increased”. For the same compound, in the data set with IGF-1 (Day 10), the “serum IGF-1 levels versus deionized water three days after terminating treatment” value is on record as “not significantly different”. For the same compound, the “increase in serum IGF-1 concentration at eight hours post administration relative to time 0” value in the data set with IGF-1 (once-daily 3 mg/kg, day 1) is “approximately 83.9%”; in the data set with IGF-1 (once-daily 3 mg/kg, day 4), “approximately 39.5%”; in the data set on IGF-1 (once-daily 3 mg/kg, day 7) it was approximately 36.8%; in the data set with IGF-1 (twice-daily 3 mg/kg, day 1), “approximately 50.6%”; with IGF-1 (twice-daily 3 mg/kg, day 4), “approximately 15.4%”; with IGF-1 (twice-daily 3 mg/kg, day 7) it was approximately 13.3%.

For the origin of these results see patent publication US11090292B2, “Compositions and methods of use of an inappetance-controlling compound” (Aratana Therapeutics, Inc., priority 2012, dated 2021).
